For one data set, the system named is mice. Conditions: mice (males and females), cited from earlier work.
Data set [1] concerns primary culture cells of Wistar rat cerebral cortex cells. The data set is described as follows: Measurement of neurite outgrowth promoting activity. Type of data set: cell-based. The arrangement: neurite outgrowth promoting activity (in words, FIG. 3): dose or concentration left out as unconfirmed. Conditions: for Neurite outgrowth promoting activity: 10 μg/ml, ratio of cerebral cortex cell masses showing neurite outgrowth after 2 days of culturing. The protocol:
A fetus was aseptically excised from a Wistar rat in the 17th day of pregnancy (purchased from Japan SLC). The brain was excised from the fetus, and the cerebral cortex was obtained by removing the cerebellum, mid-brain, inter-brain and meninges in an un-sulfated DMEM medium (prepared by dissolving 500 mg of anhydrous CaCl2, 0.25 mg of Fe(NO)3/9H2O, 1,000 mg of KCl, 193.3 mg of MgCl2, 9,250 mg of NaHCO3, 312.5 mg of NaH2PO4/H2O, 37.5 mg of Phenol Red, 275 mg of sodium pyruvate, 100 ml of MEM amino acid (No. 11130-051, manufactured by Gibco), 75 mg of L-glycine, 1,460 mg of L-glutamine, 105 mg of L-serine, 100 ml of MEM vitamin solution (No. 11120-052, manufactured by Gibco), 15,150 mg of NaCl and 11,250 mg of D-glucose in 2.5 L of sterilized distilled water and adjusting the solution to pH 7.2).
Cerebral cortexes obtained from 10 animals were finely sliced 100 times in both lengthwise and crosswise with a safety razor on a 60 mm dish, and the cerebral cortex slices were mixed twice with 10 ml of phosphate-buffered saline (PBS) and dispensed into a 50 ml capacity Falcon tube to which was subsequently added 11 ml of the un-sulfated DMEM medium. While uniformly suspending by gentle shaking, this was dispensed in 0.5 ml portions into wells of a 24 well plate (bottom area, 2 cm^2) which had been coated with 0.1% polyethylene imine. After 2 hours of the commencement of culturing, 100 μl of each sample was taken out, and 50 μl of PBS containing each substance to be tested having 10 time concentration of its final concentration and 50 μl of 400 μM chloric acid/un-sulfated DMEM medium were added. After 2 days of culturing at 37° C. under 5% CO2, 500 μl of 1% glutaraldehyde/PBS was gently over-layered to carry out 20 minutes of fixation at room temperature. After removing the supernatant by suction, 0.5 ml of PBS was slowly over-layered and then immediately removed by suction. A 20% Giemsa solution/potassium phosphate buffer was over-layered and allowed to stand for 2 hours at room temperature. After removing the supernatant by suction, 0.5 ml of PBS was added.

Data set [2] concerns blood plasma. The data set is described as follows: Measurement of APTT (activated partial thromboplastin time). It is filed as biochemical, rat. Conditions: for APTT activity: concentration of standard heparin giving APTT 100 seconds as percentage of that of the substance, standard heparin = 100; for APTT (3 μg/ml): final concentration 3 μg/ml. The method, then: For the measurement of APTT, blood was collected from rat lower aorta by 3.2% citric acid {fraction (1/10 )} volume and centrifuged at 1,000×g for 10 minutes, and 100 μl of the thus obtained blood plasma and 100 μl of each sample having varied concentration were put into a measuring cup and incubated at 37° C. for 1 minute. Thereafter, 100 μl of Actin (trade name, Yoshitomi Pharmaceutical) which had been incubated in advance at 37° C. was added thereto, and the incubation was continued for 2 minutes. Next, 100 μl of 0.02 M CaCl2 solution which had been incubated in advance at 37° C. was added thereto, and the period of time from this point until generation of coagulation was measured using a blood coagulation automatic measuring apparatus (KC-10A: manufactured by Amelung). Also, in Table 2, the final concentration of each of the inventive substance and standard heparin in the medium, by which the APTT value becomes 100 seconds, was obtained to calculate the concentration of the standard heparin as percentage based on the concentration of the inventive substance, and this value (%) was used as the APTT activity of the inventive substance.

The test system of data set [3] is blood plasma. The data set is described as follows: Measurement of TT (thrombin time). It is filed as biochemical, rat. Conditions: for TT activity: concentration of standard heparin giving TT 100 seconds as percentage of that of the substance, standard heparin = 100; for TT activity/APTT activity: ratio of TT activity to APTT activity. The method, then: For the measurement of TT, 100 μl of the blood plasma and 100 μl of each sample having varied concentration were put into a measuring cup and incubated at 37° C. for 1 minute. Thereafter, 100 μl of thrombin (10 U/ml) incubated in advance at 37° C. was added thereto, and the period of time from this point until generation of coagulation was measured using the blood coagulation automatic measuring apparatus. In Table 2, the final concentration of each of the inventive substance and standard heparin in the medium, by which the TT value becomes 100 seconds, was obtained to calculate the concentration of the standard heparin as percentage based on the concentration of the inventive substance, and this value (%) was used as the TT activity of the inventive substance.

The nature of data set [4]: Anticoagulation activity of the standard heparin. The following applies: property of the standard heparin preparation.
Data set [5] concerns sialidase (homogenate of NSC-34 cells). The data set is described as follows: Measurement of sialidase activity with [3H]GM2 substrate. It is filed as biochemical, mouse. The protocol: Into a 15 ml capacity glass tube, 1 mg of GM2 ganglioside (manufactured by IATRON) was put, and dissolved by adding 0.8 ml of distilled water, followed by sonication. To the resulting solution, 0.1 ml of PdCl2 solution (a supernatant fraction obtained by adding PdCl2 to distilled water to a concentration of 25 mg/ml, followed by sonication for 30 minutes, and then centrifuging the mixture at 2,000×g) was added, followed by stirring. […]
After the incubation, this was mixed with 5 ml of distilled water, applied to Sep-pak C18 cartridge column (manufactured by Waters) and eluted with methanol (3 ml) and then with chloroform : methanol (1:1 (v/v), 3 ml). The eluate was applied to DEAE-Sephadex A-25 column (manufactured by Pharmacia: 1 ml resin, swelled with methanol) and eluted with chloroform:methanol (1:1 (v/v), 3 ml), and then the eluate was dried to measure and compare radioactivity by a liquid scintillation counter. Radioactivity of a control in which 10 μl of distilled water was added instead of the standard heparin or inventive-substance was defined as 100% (FIG. 7). […]

The subject of another data set is NSC-34 cells. The data set is described as follows: Measurement of neural cell death inhibition activity. It is filed as cell-based, mouse. The protocol:
That is, culturing was carried out by adding 0.09 ml of serum-free DMEM medium containing 1×10^5 of NSC-34 cells (received from Dr. Cashman (Toronto University): a mouse motor neuron-derived cultured cell strain) to a 96 well multi-plate which had been treated with 0.1% polyethylene imine in advance. Two hours after culturing, 10 μl of 100, 1,000 or 10,000 μg/ml aqueous solution of the inventive substance was added to respective wells (the final concentration in the medium is 10, 100 or 1,000 μg/ml). Thereafter, culturing was continued for 46 hours, and the number of survived cells was measured by the MTT process using a hemocytometer. By comparing with the number of survived cells after 2 hours of the culturing, the number of dead cells after 48 hours of the culturing of a control in which the inventive substance was not added was defined as 100%, and the ratio of difference from the number of dead cells when the inventive substance was added (the number of cells rescued from the cell death) was calculated as percentage (FIG. 6).

Read-outs that look alike come from different tables or passages of the source.

On to heparin, for which the LD50 result with mice (intravenous injection) is reported as “about 1,000 mg/kg”; in the data set on mice (oral administration), ≥ 5,000 mg/kg; with mice (subcutaneous or intraperitoneal administration) it was ≥ 2,500 mg/kg.
Consider “heparin sodium salt [Standard heparin, reference compound]”, for which, in data set [1], the “Neurite outgrowth promoting activity” value is given as 15.0%. For the same substance, in the data set with blood plasma [2], the APTT activity turned out to be 100% and the “APTT (3 μg/ml)” value was 248 s. Besides, in the data set on blood plasma [3], the TT activity stood at 100% and the “TT activity/APTT activity” value amounted to 1. This substance had an anticoagulation activity in data set [4] of 160 IU/mg.
Regarding “selectively 2-O-desulfated periodic acid oxidation-reduction heparin [Inventive substance]”, in data set [1], the “neurite outgrowth promoting activity (in words, FIG. 3)” value is listed as “sharp increase in the neurite outgrowth promoting activity” and the “Neurite outgrowth promoting activity” value stood at 29.7%. Moreover, in the data set on blood plasma [2], the APTT activity was found to be 2% and the “APTT (3 μg/ml)” value came to 32 s. Besides, the “sialidase inhibition activity compared with standard heparin” value in data set [5] (10 μl of 10 μg/ml aqueous solution, 37° C., 1 hour (FIG. 7)) is “stronger activity to inhibit sialidase which degrades ganglioside than the standard heparin”. Also, in data set [5] (10 μl of 10, 100 or 1,000 μg/ml aqueous solution (FIG. 8)), the “sialidase inhibition activity compared with NeuAc2en” value is listed as “stronger sialidase inhibition activity than that of NeuAc2en”. Further, in the data set with blood plasma [3], the TT activity is reported as 0.37% and the “TT activity/APTT activity” value came to 0.185. The “cells rescued from cell death” value with NSC-34 cells (100 μg/ml aqueous solution added, NSC-34 cells) was “about half the number of cells is rescued from cell death”. Besides, the “activity to inhibit cell death and rescue the cells” value with NSC-34 cells (100 and 1,000 μg/ml aqueous solution added, NSC-34 cells, 48 hours, MTT) was “markedly inhibit cell death”. Further, the “neurite outgrowth promoting activity in the survived cells” value in the data set with NSC-34 cells (survived NSC-34 cells) was “neurite outgrowth promoting activity was observed”.
